Consider 4 compounds from ChEMBL document CHEMBL3046747, “Assessment of species specificity of moulting accelerating compounds in Lepidoptera: comparison of activity between Bombyx mori and Spodoptera littoralis by in vitro reporter and in vivo toxicity assays” (Pest Manag Sci, 2010).

Series [1] concerns the target T1, Ecdysone receptor (Spodoptera littoralis, UniProt E3UJZ5).
T1 sequence (E3UJZ5 whole entry): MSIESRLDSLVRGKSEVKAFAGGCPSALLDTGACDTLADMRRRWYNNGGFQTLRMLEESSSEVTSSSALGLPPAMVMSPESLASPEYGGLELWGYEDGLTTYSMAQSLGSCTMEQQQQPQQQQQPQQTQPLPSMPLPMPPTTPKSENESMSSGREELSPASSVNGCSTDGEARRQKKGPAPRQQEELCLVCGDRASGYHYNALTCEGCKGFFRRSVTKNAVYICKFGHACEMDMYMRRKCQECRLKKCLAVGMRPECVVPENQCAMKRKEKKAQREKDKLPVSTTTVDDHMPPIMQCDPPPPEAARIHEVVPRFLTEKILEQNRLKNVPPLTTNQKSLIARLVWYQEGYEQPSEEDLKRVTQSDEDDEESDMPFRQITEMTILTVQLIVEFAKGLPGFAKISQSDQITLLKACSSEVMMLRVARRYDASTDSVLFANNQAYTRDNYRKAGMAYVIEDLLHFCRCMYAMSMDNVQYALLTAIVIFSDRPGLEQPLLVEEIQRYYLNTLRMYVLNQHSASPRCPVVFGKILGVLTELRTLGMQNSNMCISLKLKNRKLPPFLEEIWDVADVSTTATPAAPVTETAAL
Kind of series: Antagonist activity at ecdysone receptor in Spodoptera littoralis Sl2 cells assessed as tebufenozide-induced effect treated 24 hr before tebufenozide challenge measured after 24 hr by luciferase reporter gene assay. It is filed as cell-based.

For series [2], the target named is T1, Ecdysone receptor. Kind of series: Agonist activity at ecdysone receptor in Spodoptera littoralis Sl2 cells after 24 hr by luciferase reporter gene assay. It is filed as cell-based. In general terms: Reporter assays use an easily measured gene product as a stand-in for the process of interest.
Series [3] has as its target T2, Ecdysone receptor (Bombyx mori, UniProt P49881).
T2 sequence (P49881 whole entry): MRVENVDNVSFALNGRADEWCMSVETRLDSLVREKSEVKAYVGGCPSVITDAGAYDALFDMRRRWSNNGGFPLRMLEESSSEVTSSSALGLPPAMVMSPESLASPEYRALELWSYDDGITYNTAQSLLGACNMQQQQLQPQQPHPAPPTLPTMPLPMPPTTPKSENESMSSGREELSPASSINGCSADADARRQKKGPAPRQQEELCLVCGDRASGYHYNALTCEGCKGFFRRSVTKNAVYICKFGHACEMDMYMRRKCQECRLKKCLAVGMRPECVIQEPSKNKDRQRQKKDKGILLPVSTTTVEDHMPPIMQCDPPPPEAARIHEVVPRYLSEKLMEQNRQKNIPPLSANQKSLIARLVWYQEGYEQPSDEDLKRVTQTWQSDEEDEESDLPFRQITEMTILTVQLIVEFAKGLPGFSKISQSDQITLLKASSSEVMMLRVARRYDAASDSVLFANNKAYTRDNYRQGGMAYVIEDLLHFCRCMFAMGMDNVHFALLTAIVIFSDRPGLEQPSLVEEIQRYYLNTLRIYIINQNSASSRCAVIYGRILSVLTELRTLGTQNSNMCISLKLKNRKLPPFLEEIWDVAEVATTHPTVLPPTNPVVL
In words: Antagonist activity at ecdysone receptor in Bombyx mori Bm5 cells assessed as tebufenozide-induced effect treated 24 hr before tebufenozide challenge measured after 24 hr by luciferase reporter gene assay. It is filed as cell-based.

Series [4] can be described thus: Ratio of IC50 for ecdysone receptor in Bombyx mori Bm5 cells to LC50 for Bombyx mori Bm5 cells.
The target in series [5] is T2, Ecdysone receptor. Kind of series: Agonist activity at ecdysone receptor in Bombyx mori Bm5 cells after 24 hr by luciferase reporter gene assay. In kind it is cell-based.
Series [6] in a line: Cytotoxicity against Bombyx mori Bm5 cells assessed as cell viability after 24 hr by MTT assay. It is filed as cell-based. The following applies: read-out: pLC50 (converted). (Tetrazolium assays rely on reduction of a dye to a coloured formazan, in cell work by metabolically active cells.)
In series [7] the target is T3, Ecdysone receptor (Spodoptera littoralis) (UniProt E3UJZ5).
T3 sequence (whole entry): T1 sequence (E3UJZ5 whole entry)
In words: Agonist activity at ecdysone receptor in Spodoptera littoralis Sl2 cells after 24 hr by luciferase reporter gene assay relative to tebufenozide. It is filed as cell-based.

Series [8] deals with T4, Ecdysone receptor (Bombyx mori) (UniProt P49881).
T4 sequence (whole entry): T2 sequence (P49881 whole entry)
Kind of series: Agonist activity at ecdysone receptor in Bombyx mori Bm5 cells after 24 hr by luciferase reporter gene assay relative to tebufenozide. It is filed as cell-based.

Series [9] can be described thus: Ratio of IC50 for ecdysone receptor in Spodoptera littoralis Sl2 cells to LC50 for Spodoptera littoralis Sl2 cells.
Series [10] relates to Spodoptera littoralis. In words: Cytotoxicity against Spodoptera littoralis Sl2 cells assessed as cell viability after 24 hr by MTT assay. The conditions noted are these: read-out: pLC50 (converted).
A short description of series [11]: Selectivity ratio of EC50 for ecdysone receptor in Bombyx mori Bm5 cells to EC50 for ecdysone receptor in Spodoptera littoralis Sl2 cells. It is filed as cell-based.
Series [12] deals with T3, Ecdysone receptor (Spodoptera littoralis). Kind of series: Agonist activity at ecdysone receptor in Spodoptera littoralis Sl2 cells at 200 uM after 24 hr by luciferase reporter gene assay. In kind it is cell-based.
The target of series [13] is T4, Ecdysone receptor (Bombyx mori). Kind of series: Agonist activity at ecdysone receptor in Bombyx mori Bm5 cells at 200 uM after 24 hr by luciferase reporter gene assay. In kind it is cell-based.

Structures are written as SMILES. Calls of active or inactive are those of the source. The calls are words filed in the database; no cut-off is given here. Where only a bound is given, the exact number is not on record here.

For `Cc1cc(C)cc(C(=O)C2(NC(=O)C(F)(F)F)CCCCC2)c1`, the IC50 in series [1] was 16.2 µM; in [3], 67.6 µM. The pEC50 in series [2] (sl2) and in [5] was above 4 throughout. For the same compound, the Ratio is reported as 0.29 in [4] and below 0.04 in [9]. The results for the CC50 at 24 h in [6] and in series [10] were 234 µM and above 501 µM, respectively. The Efficacy in series [7] came to 17%; in series [8], 6%.

On to `CCc1ccc(C(=O)NC(C(=O)c2cc(C)cc(C)c2)C(C)(C)C)cc1` (stereo not given), for which the Ratio EC50 in [11] turned out to be 0.76. The IC50 is 24 µM in [1] and 28.2 µM in series [3]. The EC50 was 46.8 µM in [2] (read-out: pEC50 (converted)) and 35.5 µM in series [5] (read-out: pEC50 (converted)). The figures for the Ratio in series [4] and in series [9] were 0.72 and below 0.05, respectively. Further, the CC50 at 24 h in series [6] was 38.9 µM; in series [10], above 501 µM. Also, the Efficacy in [7] stood at 17%; in series [8] it was 11%.

Consider `CCOc1ccccc1C(=O)N(NC(=O)c1ccccc1)C(C)(C)C`, for which the outcome in [12] and in [13] was inactive.

As for `CCOc1ccccc1C(=O)N(NC(=O)c1ccc([N+](=O)[O-])cc1)C(C)(C)C`, the outcome in series [12] and in [13] was inactive.

Broadly, the IC50 is the concentration that inhibits the measured activity by half. Broadly, the pEC50 is −log10 of the EC50, conventionally taken in molar units.
